According to US20200087625A1, “METHODS FOR ISOLATING, EXPANDING AND ADMINISTERING CANCER SPECIFIC CD8+ T CELLS” (priority 2017, published 2020):

Tests used:
4T1-GLF cells = test: In vivo imaging (IVIS) of lung tumor signals, 4T1-GLF; parameters: species or system BALB/c mice; conditions: 200 μg i.p. day -1; early phase 3 h and 6 h, late phase days 7, 10, 14
Description: (§1) FIGS. 25A-25F. Innate immune cells, NK cells and dendritic cells are activated following 1V270 therapy and contribute to anti-metastatic effects (A-C) Systemic administration of 1V270 activates dendritic cells and increases CD8^+ cell recruitment in the lung draini lymph node. (A) BALB/c mice (n=S/group) were treated with 1V270 on day −1 and then tumor cells were i.v. administered on day 0. Seven days later, mediastinal lymph node (mLN) cells were stained for dendritic cells (DC; CD45^+CD11c^+MHC classll^+). (B) DCs were further stained for CD80 and CD86. […] Tumor signals were quantified by IVIS. […] On the next day, lung cells were stained for NK markers (CD45^+[…] NKp46^+CD49^+) and analyzed by flow cytometry. […] Tumor signals were analyzed as described above. […]
GFP and luciferase (GLF)-expressing tumor cells (2×10^4 of 4T1-GLF, 5×10^5 of B16-GLF, and […] of LLC-GLF) were i.v. injected into BALB/c mice for 4T1 models, BG-albino or wild-type C57BU6 for B16 melanoma or LLC models). […] Image data were acquired by 1 Ss exposure using the IVIS Spectrum and analyzed using the Living Image software, version 4.5.2 (Perkin Elmer, Waltham, Mass.). We confirmed that the tumor signals in the lungs at day 10 correlated with the number of lung metastasis determined on day 21, as well as the overall survival (Supplemental figures 10). […]

NK cells and MDSC = test: Innate immune cell recruitment to the lungs (flow cytometry); type: in vivo, BALB/c mice; conditions: 1V270 day -1; vs vehicle
Description: as §1, with “CD86. (C) The mLN cells were also stained for central memory CD8^+ T cells (CD3+CD8^+CD44^+CD62L^+), effector memory CD8^+ T cells (CD3+CD8^+CD44^+CD62L^+), and naive CD8^+ T cells (CD3+CD8^+CD44^−CD62L^−). Each dot indicates an individual mouse and horizontal and vertical bars indicate means±SEM.” for “CD86.”
FIGS. 33A-33C. […] Next day, single cell suspensions derived from the lungs were stained for (A) NK cells (CD45^+CD3^−NKp46^+CD49^+), (B) M-MDSCs (CD45^+CD11b^+Ly6G^−Ly6^high) and (C) PMN-MDSCs (CD45^+CD11b^+Ly6G^+) were analyzed by flow cytometric assay. […]

CCCCCCCCC=CCCCCCCCC(=O)OCC(COP(=O)(O)OCCNC(=O)c1ccc(Cn2c(=O)[nH]c3c(N)nc(OCCOC)nc32)cc1)OC(=O)CCCCCCCC=CCCCCCCCC (stereo not drawn) [1V270]
lung tumor signals (IVIS) (4T1-GLF cells): significantly suppressed the tumor signals | population of NK cells recruited to the lungs (NK cells and MDSC): Significantly increased populations | population of monocytic-MDSC recruited to the lungs (NK cells and MDSC): Significantly increased populations
